The subject of test [1] is MCF7. Put plainly: Induction of reactive oxygen species production in human MCF7 cells at IC50 concentration up to 6 hrs by DCF-2DA dye based flow cytometry. It is filed as functional, cell-based. (Flow cytometry measures light scatter and fluorescence of single cells or particles in a stream.)
For test [2], the system named is MCF7. Put plainly: Antiproliferative activity against human MCF7 cells assessed as cell viability at IC50 concentration after 48 hrs by 2',7'-dichlorofluorescin diacetate/PI staining based flow cytometry. It is filed as functional.
The test system of test [3] is MCF7. Put plainly: Induction of autophagy in human MCF7 cells assessed as acidic vesicles at 5.1 uM over 3 days by acridine orange dye based flow cytometry. Type of test: functional, cell-based.
Test [4] deals with MCF7. Put plainly: Cytotoxicity against human MCF7 cells assessed as inhibition of cell growth at IC50 concentration after 72 hrs by trypan blue assay. It is filed as functional.
In test [5] the test system is MCF7. Put plainly: Cytotoxicity against human MCF7 cells assessed as inhibition of cell growth after 72 hrs by MTT assay. It is filed as functional, cell-based. Particulars: MCF7, 72 h. A general note: Formazan colour is commonly taken as a measure of viable cells.
The test system of test [6] is MCF7. Put plainly: Cell cycle arrest in human MCF7 cells assessed as accumulation at G2/M phase at IC50 concentration after 48 hrs by propidium iodide staining-based flow cytometry (reference value: 13.8 +/- 1%). Type of test: functional.
Test [7] addresses T1, M-phase inducer phosphatase 1 (Homo sapiens, UniProt P30304).
T1 sequence (P30304 whole entry): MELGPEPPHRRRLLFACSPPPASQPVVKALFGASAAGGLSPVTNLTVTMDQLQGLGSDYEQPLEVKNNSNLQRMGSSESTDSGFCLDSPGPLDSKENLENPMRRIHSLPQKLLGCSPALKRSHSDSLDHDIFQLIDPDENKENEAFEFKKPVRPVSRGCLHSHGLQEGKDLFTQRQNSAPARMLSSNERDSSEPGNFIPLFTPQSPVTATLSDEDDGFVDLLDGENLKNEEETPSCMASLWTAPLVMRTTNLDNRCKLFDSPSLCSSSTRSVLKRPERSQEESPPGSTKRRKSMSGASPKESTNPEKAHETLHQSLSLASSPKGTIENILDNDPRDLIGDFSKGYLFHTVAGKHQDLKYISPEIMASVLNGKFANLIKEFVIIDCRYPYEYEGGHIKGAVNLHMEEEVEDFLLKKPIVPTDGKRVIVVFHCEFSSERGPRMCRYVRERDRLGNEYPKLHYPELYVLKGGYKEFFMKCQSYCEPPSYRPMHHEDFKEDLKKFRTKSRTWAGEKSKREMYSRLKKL
Put plainly: Mixed type inhibition of human recombinant full length GST-tagged CDC25A transfected in Escherichia coli BL21-DE3 assessed as enzyme/inhibitor complex using 3-O-methylfluorescein phosphate as substrate at 10 uM incubated for 20 mins followed by substrate addition measured every 10 mins for 2 hrs by fluorimetric assay.

The values below come from ChEMBL document CHEMBL3808363, “2-(Thienothiazolylimino)-1,3-thiazolidin-4-ones inhibit cell division cycle 25 A phosphatase” (Bioorg Med Chem, 2016).

Calls of active or inactive are those of the source. The calls are words filed in the database; no cut-off is given here.

As usually defined, the IC50 is the concentration at which inhibition is half-maximal. As a reminder, the Ki is a measure of affinity in units of concentration, obtained from inhibition or displacement.

As to `COc1ccc(/C=C2/S/C(=N\c3nc4cc(-c5ccc(Cl)cc5)sc4s3)NC2=O)cc1`, the outcome with MCF7 [1], with MCF7 [2] and with MCF7 [3] was inactive. Besides, in the test on MCF7 [4], the “growth inhibition (GI)” value is listed as 45%. Besides, the IC50 with MCF7 [5] stood at 5.1 µM. Further, in the test on MCF7 [6], the Activity came to 15.8%. Further, the Ki in test [7] came out at 4.8 µM.
